Test results taken from patent US20250154145A1, “OXER1 ANTAGONISTS AND USES THEREOF” (Fairhaven Pharmaceuticals Ins., priority 2021, published 2025).

test system: neutrophils; test: Neutrophil calcium flux assay (5-OXO-ETE-stimulated, Indo-1 fluorescence); format: cell-based; settings: 5-OXO-ETE-stimulated calcium flux
Description: After isolation, neutrophils were resuspended in PBS without calcium and Magnesium (PBS −/−) at a concentration of 5×10^6 cells/ml. 2ul of Indo-1 (1 mM) were added per ml of cells. After incubation at 37° C. for 30 minutes, cells were washed twice in PBS −/− and resuspended at 5×10^6 cells/ml in assay buffer (HBSS 1× with calcium and magnesium and […]). In a 96-well Black optical clear bottom plate 100 μL of neutrophil were dispensed to each well. After incubation at 37° C. for 5 minutes, 50 μL of assay buffer or 3× antagonist were added and incubated for 5 min in a Tecan Spark plate reader (Tecan, Morrisville, NC). Baseline was measured for 30 sec (wavelength setup: excitation: 331 nm and emission:410 nm). When baseline is stable, 50p of 5-OXO-ETE at 200 nM (4×) or HBSS was added to appropriate wells. Fluorescence was measured every 5 seconds for 30 cycles. Results are expressed as Net fluorescence (FLU minus Background and injection peak). All data were analyzed using GraphPad Prism version 9 for Windows (GraphPad, San Diego, CA).

Row | Structure (SMILES) | IC50
1 | CC(CC(=O)O)CC(=O)c1c(CCCCCC(O)c2cccc(C#N)c2)n(C)c2ncc(Cl)cc12 (single isomer, unassigned) [Compound I-306] | > 300 nM
2 | CC(CC(=O)O)CC(=O)c1c(CCCCCC(O)c2cccc(C#N)c2)n(C)c2ncc(Cl)cc12 (single isomer, unassigned) [Compound I-307] | < 100 nM
3 | CC(CC(=O)O)CC(=O)c1c(CCCCCC(O)c2cccc(C#N)c2)n(C)c2ncc(Cl)cc12 (single isomer, unassigned) [Compound I-308] | < 100 nM
4 | CC(CC(=O)O)CC(=O)c1c(CCCCCC(O)c2cccc(C#N)c2)n(C)c2ncc(Cl)cc12 (single isomer, unassigned) [Compound I-309] | > 300 nM
5 | CC(CC(=O)O)CC(=O)c1c(CCCCCC(O)c2cccc(C(=O)N(C)C)c2)n(C)c2ncc(C#N)cc12 (single isomer, unassigned) [Compound I-315] | > 300 nM
6 | CC(CC(=O)O)CC(=O)c1c(CCCCCC(O)c2cccc(C(=O)N(C)C)c2)n(C)c2ncc(C#N)cc12 (single isomer, unassigned) [Compound I-316] | > 300 nM
7 | CC(CC(=O)O)CC(=O)c1c(CCCCCC(O)c2cccc(C(=O)N(C)C)c2)n(C)c2ncc(C#N)cc12 (single isomer, unassigned) [Compound I-317] | < 100 nM
8 | CC(CC(=O)O)CC(=O)c1c(CCCCCC(O)c2cccc(C(=O)N(C)C)c2)n(C)c2ncc(C#N)cc12 (single isomer, unassigned) [Compound I-318] | 100 to 300 nM

same assay, conditions: Neutrophil, 5-OXO-ETE-stimulated calcium flux

Row | Structure (SMILES) | IC50
9 | C[C@H](CC(=O)c1c(CCCCOCc2ccccc2)n(C)c2ncc(C#N)cc12)Cc1nnn[nH]1 (stereo in doubt) [Compound I-360] | > 300 nM
10 | CCCCCCc1cc2ccc(Cl)cc2n1C(=O)C[C@H](C)CC(=O)O [Compound I-12] | > 300 nM
11 | C[C@@H](CC(=O)NS(C)(=O)=O)CC(=O)c1c(CCCCCCc2cccc(Cl)c2)n(C)c2ccc(Cl)cc12 [Compound I-15] | > 300 nM
12 | C[C@@H](CC(=O)NO)CC(=O)c1c(CCCCCCc2cccc(Cl)c2)n(C)c2ccc(Cl)cc12 [Compound I-18] | > 300 nM
13 | C[C@H](CC(=O)O)CC(=O)c1c(CCCCCCc2cccc(Cl)c2)n(C)c2ncc(Cl)cc12 [Compound I-24] | > 300 nM
14 | C[C@H](CC(=O)O)CC(=O)c1c(CCCCCCc2cccnc2)n(C)c2ccc(Cl)cc12 [Compound I-53] | < 100 nM
15 | C[C@H](CC(=O)O)CC(=O)c1c(CCCCCCc2ccccn2)n(C)c2ccc(Cl)cc12 [Compound I-54] | 100 to 300 nM
16 | C[C@H](CC(=O)O)CC(=O)c1c(CCCCCCc2ccncc2)n(C)c2ccc(Cl)cc12 [Compound I-55] | < 100 nM
17 | CC(CC(=O)O)CC(=O)c1c(CCCCCCc2cccc(Cl)c2)n(C)c2ccc(C(F)(F)F)cc12 (centres unmarked) [Compound I-58] | < 100 nM
18 | C[C@H](CC(=O)O)CC(=O)c1c(CCCOCCc2cccc(Cl)c2)n(C)c2ccc(Cl)cc12 [Compound I-61] | < 100 nM
19 | C[C@H](CC(=O)O)CC(=O)c1c(CCOCCCc2cccc(Cl)c2)n(C)c2ccc(Cl)cc12 [Compound I-62] | < 100 nM
20 | C[C@H](CC(=O)O)CC(=O)c1c(COCCCCc2cccc(Cl)c2)n(C)c2ccc(Cl)cc12 [Compound I-63] | < 100 nM
21 | C[C@H](CC(=O)O)CC(=O)c1c(CCOCCOc2cccc(Cl)c2)n(C)c2ccc(Cl)cc12 [Compound I-64] | 100 to 300 nM
22 | CC(CC(=O)O)CC(=O)c1c(COCCOCc2cccc(Cl)c2)n(C)c2ccc(Cl)cc12 (centres unmarked) [Compound I-65] | 100 to 300 nM
23 | CC(C)CCCCc1c(C(=O)C[C@H](C)CC(=O)O)c2cc(Cl)ccc2n1C [Compound I-70] | 100 to 300 nM
24 | CC(C)OCCCc1c(C(=O)C[C@H](C)CC(=O)O)c2cc(Cl)ccc2n1C [Compound I-71] | > 300 nM
25 | CC(C)COCCc1c(C(=O)C[C@H](C)CC(=O)O)c2cc(Cl)ccc2n1C [Compound I-72] | > 300 nM
26 | C[C@H](CC(=O)O)CC(=O)c1c(CCCCOCC2(C(F)(F)F)CC2)n(C)c2ccc(Cl)cc12 [Compound I-74] | > 300 nM
